# Experimental data from ChEMBL document CHEMBL6092156, “Design and development of a series of 4-(piperazin-1-yl)pyrimidines as irreversible menin inhibitors” (Eur J Med Chem, 2024).
# Columns and labels:
# [1] = system: REH; assay: Antiproliferative activity against human menin-insensitive REH cells assessed as inhibition of cell growth incubated for 7 days by MTS assay; assay type: functional, cell-based; details: 168 h
# [2] = system: MV4-11; assay: Antiproliferative activity against human menin-sensitive MV4-11 cells assessed as inhibition of cell growth incubated for 7 days by MTS assay; assay type: functional, cell-based; details: MV4-11, 168 h
# [3] = biological target: Menin/Histone-lysine N-methyltransferase MLL (Homo sapiens, UniProt O00255); assay: Inhibition of menin (unknown origin)/N-terminal FITC-labeled MLL1 peptide (unknown origin) interaction incubated for 30 min by fluorescence polarization assay; assay type: protein assay
# Menin/Histone-lysine N-methyltransferase MLL, sequence (O00255 whole entry): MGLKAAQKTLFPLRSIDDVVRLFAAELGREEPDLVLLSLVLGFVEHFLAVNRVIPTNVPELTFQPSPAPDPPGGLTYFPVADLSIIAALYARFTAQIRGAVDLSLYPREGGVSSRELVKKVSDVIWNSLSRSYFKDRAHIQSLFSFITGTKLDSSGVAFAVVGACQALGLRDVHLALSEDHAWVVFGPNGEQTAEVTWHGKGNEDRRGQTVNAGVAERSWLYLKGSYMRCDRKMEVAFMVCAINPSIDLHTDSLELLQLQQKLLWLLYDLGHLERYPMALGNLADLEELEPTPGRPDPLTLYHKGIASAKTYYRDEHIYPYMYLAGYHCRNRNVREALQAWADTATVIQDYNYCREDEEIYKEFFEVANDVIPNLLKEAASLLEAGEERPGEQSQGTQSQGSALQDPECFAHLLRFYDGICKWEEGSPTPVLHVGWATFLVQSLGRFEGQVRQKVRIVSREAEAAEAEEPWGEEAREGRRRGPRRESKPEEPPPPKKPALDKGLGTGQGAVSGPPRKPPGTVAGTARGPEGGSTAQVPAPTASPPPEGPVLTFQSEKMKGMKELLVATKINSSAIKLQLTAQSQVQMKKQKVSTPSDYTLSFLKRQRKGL
# Menin/Histone-lysine N-methyltransferase MLL, sequence (Q03164 1-2718 partner limits assumed): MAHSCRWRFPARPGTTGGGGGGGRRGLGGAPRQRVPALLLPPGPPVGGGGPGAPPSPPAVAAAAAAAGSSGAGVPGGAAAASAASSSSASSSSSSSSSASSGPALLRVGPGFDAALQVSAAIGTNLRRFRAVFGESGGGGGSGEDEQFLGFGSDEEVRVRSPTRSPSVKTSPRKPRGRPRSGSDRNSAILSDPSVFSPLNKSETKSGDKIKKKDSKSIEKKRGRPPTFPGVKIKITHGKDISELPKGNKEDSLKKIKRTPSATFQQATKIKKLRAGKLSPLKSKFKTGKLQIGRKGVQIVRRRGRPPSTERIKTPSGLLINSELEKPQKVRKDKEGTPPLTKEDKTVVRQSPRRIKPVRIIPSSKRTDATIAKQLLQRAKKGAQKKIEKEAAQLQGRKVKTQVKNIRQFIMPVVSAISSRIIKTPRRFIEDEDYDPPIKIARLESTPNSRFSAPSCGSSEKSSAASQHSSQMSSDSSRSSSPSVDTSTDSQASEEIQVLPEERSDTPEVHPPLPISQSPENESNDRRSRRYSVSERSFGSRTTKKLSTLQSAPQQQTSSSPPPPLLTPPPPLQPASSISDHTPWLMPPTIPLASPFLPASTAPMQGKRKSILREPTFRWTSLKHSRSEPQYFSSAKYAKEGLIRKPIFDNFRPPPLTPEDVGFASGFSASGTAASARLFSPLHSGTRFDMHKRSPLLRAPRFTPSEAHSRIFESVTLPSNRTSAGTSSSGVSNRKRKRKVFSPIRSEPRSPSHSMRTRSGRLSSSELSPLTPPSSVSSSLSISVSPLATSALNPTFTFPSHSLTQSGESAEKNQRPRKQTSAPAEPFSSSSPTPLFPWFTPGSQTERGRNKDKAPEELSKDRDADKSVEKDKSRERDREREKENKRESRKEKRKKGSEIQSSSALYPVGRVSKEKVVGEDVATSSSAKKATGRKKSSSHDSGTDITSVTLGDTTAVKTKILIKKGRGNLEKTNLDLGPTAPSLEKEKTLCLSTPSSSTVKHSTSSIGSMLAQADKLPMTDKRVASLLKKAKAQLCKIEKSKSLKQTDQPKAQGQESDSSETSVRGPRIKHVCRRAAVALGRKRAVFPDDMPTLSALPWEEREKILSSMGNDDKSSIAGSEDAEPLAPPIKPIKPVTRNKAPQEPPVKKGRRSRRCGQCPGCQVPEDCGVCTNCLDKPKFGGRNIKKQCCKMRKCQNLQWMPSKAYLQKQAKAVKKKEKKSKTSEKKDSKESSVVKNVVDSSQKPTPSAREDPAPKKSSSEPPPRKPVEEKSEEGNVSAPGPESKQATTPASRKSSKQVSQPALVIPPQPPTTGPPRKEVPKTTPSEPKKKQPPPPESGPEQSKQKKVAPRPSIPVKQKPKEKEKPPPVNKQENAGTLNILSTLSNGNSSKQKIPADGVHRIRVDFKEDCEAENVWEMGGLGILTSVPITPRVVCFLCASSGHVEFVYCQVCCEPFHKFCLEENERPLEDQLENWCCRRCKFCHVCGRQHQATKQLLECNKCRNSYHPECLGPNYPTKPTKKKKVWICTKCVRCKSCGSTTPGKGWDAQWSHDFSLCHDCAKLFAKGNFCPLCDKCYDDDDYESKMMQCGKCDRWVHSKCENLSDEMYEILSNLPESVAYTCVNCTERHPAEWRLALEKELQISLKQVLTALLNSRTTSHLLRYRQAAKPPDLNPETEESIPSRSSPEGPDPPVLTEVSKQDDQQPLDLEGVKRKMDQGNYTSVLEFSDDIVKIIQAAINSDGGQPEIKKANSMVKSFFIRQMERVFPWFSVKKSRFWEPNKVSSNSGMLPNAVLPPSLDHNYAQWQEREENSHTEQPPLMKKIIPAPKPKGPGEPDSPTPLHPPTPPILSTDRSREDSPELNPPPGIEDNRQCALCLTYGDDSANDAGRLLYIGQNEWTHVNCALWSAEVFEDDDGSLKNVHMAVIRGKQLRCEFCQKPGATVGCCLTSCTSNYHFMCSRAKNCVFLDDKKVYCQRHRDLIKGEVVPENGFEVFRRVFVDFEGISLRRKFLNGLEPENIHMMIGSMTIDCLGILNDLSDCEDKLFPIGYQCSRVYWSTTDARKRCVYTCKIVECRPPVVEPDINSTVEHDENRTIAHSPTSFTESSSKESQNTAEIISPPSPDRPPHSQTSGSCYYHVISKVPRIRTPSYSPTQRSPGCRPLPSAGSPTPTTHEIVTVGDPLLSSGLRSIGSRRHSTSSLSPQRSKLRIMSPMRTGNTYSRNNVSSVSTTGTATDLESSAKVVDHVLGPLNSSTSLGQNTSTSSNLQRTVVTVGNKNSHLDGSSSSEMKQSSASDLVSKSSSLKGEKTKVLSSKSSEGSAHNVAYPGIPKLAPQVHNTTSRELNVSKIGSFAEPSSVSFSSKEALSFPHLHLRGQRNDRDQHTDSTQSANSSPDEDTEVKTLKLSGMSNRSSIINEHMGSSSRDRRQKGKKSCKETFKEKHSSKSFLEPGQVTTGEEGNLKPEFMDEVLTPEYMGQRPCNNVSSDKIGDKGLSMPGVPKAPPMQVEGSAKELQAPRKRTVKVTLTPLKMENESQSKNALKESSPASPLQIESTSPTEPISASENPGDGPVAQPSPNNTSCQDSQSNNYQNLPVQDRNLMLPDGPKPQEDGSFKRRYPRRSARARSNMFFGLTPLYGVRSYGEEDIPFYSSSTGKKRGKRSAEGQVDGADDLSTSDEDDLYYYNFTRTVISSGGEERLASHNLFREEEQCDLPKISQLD
# Menin/Histone-lysine N-methyltransferase MLL, sequence (Q03164 2719-3969 partner limits assumed): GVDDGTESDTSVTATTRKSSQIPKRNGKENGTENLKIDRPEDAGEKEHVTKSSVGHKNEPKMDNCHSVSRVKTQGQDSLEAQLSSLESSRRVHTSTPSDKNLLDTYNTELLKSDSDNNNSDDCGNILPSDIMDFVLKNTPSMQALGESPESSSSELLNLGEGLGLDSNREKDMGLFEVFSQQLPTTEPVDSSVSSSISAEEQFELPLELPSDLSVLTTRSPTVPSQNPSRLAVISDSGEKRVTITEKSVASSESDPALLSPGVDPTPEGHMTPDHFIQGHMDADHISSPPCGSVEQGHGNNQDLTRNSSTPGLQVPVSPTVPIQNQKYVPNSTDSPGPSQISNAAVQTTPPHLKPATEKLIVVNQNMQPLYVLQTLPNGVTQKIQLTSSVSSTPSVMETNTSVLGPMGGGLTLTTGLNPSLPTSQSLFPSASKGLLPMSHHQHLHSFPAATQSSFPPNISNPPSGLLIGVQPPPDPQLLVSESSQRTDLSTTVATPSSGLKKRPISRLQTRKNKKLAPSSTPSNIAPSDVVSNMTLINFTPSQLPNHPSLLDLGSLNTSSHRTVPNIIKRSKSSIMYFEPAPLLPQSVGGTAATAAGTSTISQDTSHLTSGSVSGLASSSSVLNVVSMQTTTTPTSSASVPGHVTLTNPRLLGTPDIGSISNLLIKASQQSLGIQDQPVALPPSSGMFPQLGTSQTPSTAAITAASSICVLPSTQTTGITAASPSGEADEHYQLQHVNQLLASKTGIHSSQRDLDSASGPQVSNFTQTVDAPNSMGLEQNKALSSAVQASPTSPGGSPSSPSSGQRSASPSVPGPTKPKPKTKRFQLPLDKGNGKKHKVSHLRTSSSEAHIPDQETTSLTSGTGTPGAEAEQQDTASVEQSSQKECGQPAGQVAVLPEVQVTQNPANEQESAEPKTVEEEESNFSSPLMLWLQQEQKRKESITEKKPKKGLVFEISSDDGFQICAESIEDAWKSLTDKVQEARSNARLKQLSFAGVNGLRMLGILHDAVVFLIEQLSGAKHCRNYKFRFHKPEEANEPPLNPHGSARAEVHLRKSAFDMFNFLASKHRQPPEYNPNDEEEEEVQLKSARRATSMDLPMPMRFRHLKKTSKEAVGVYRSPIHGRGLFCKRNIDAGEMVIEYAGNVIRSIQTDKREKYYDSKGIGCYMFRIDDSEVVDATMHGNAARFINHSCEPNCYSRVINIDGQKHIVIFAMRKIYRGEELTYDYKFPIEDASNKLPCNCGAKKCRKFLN
SMILES,IC50 [2] [nM],IC50 [3] [nM],IC50 [1] [nM]
CCN(C(=O)c1cc(F)ccc1Nc1cncnc1N1CCN(CC2CN(c3ccc([N+](=O)[O-])cc3)C2)CC1)C(C)C,,50.2,
CCN(C(=O)c1cc(F)ccc1Nc1cncnc1N1CCN(CC2CN(c3ccc(NC(=O)/C=C/CN(C)C)cc3)C2)CC1)C(C)C,1100,61.9,> 20000
CCN(C(=O)c1cc(F)ccc1Nc1cncnc1N1CCN(CC2CN(c3ccc(C#N)cc3)C2)CC1)C(C)C,,38.8,
CCN(C(=O)c1cc(F)ccc1Nc1cncnc1N1CCN(C(=O)C2CN(c3ccc(S(=O)(=O)C4CN(C(=O)/C=C/CN(C)C)C4)cc3)C2)CC1)C(C)C,50,12.9,> 20000
CCN(C(=O)c1cc(F)ccc1Nc1cncnc1N1CCN(CC2CN(c3ccc(F)cc3)C2)CC1)C(C)C,,276,
CCN(C(=O)c1cc(F)ccc1Nc1cncnc1N1C[C@@H](C)N(CC2CN(c3ccc(S(=O)(=O)C4CN(C(=O)/C=C/CN(C)C)C4)cc3)C2)C[C@@H]1C)C(C)C,120,22.3,18000
CCN(C(=O)c1cc(F)ccc1Nc1cncnc1N1CCN(CC2CN(c3ccc(NS(C)(=O)=O)cc3)C2)CC1)C(C)C,,27.3,
CCN(C(=O)c1cc(F)ccc1Nc1cncnc1N1CCN(CC2CN(c3ccc(S(=O)(=O)C4CN(C(=O)/C=C/CN5CCCC5)C4)cc3)C2)CC1)C(C)C,32,16.3,6980
CCN(C(=O)c1cc(F)ccc1Nc1cncnc1N1CCN(CC2CN(c3ccc(S(=O)(=O)C4CN(C(=O)/C=C/CN5CCCCC5)C4)cc3)C2)CC1)C(C)C,30,16.6,7880
CCC(=O)c1ccc(N2CC(CN3CCN(c4ncncc4Nc4ccc(F)cc4C(=O)N(CC)C(C)C)CC3)C2)cc1,,49.7,
CCC(=O)Nc1ccc(N2CC(CN3CCN(c4ncncc4Nc4ccc(F)cc4C(=O)N(C(C)C)C(C)C)CC3)C2)cc1,770,48.3,8260
CCN(C(=O)c1cc(F)ccc1Nc1cncnc1N1CCN(CC2CN(c3ccc(C(F)(F)F)cc3)C2)CC1)C(C)C,,186,

# Further lines, with some results ahead:
IC50 [2] [nM],IC50 [3] [nM],SMILES,IC50 [1] [nM]
607,51.4,C=CC(=O)N[C@H]1CCN(S(=O)(=O)c2ccc(N3CC(CN4CCN(c5ncncc5Nc5ccc(F)cc5C(=O)N(CC)C(C)C)CC4)C3)cc2)C1,> 20000
,21.6,CCN(C(=O)c1cc(F)ccc1Nc1cncnc1N1CCN(CC2CN(c3ccc(S(N)(=O)=O)cc3)C2)CC1)C(C)C,
,66.5,CCN(C(=O)c1cc(F)ccc1Nc1cncnc1N1CCN(CC2CN(c3ccc(S(C)(=O)=O)cc3)C2)CC1)C(C)C,
1470,52.2,CCC(=O)N[C@@H]1CCN(S(=O)(=O)c2ccc(N3CC(CN4CCN(c5ncncc5Nc5ccc(F)cc5C(=O)N(CC)C(C)C)CC4)C3)cc2)C1,> 20000
614,11.3,CCN(C(=O)c1cc(F)ccc1Nc1cncnc1N1CCN(CC2CN(c3ccc(S(=O)(=O)N4CC[C@@H](NC(=O)/C=C/CN(C)C)C4)cc3)C2)CC1)C(C)C,> 20000
644,16.7,CCN(C(=O)c1cc(F)ccc1Nc1cncnc1N1CCN(CC2CN(c3ccc(S(=O)(=O)N4CC[C@H](NC(=O)/C=C/CN(C)C)C4)cc3)C2)CC1)C(C)C,> 20000
875,34.2,CCC(=O)NC1CN(S(=O)(=O)c2ccc(N3CC(CN4CCN(c5ncncc5Nc5ccc(F)cc5C(=O)N(CC)C(C)C)CC4)C3)cc2)C1,> 20000
281,12.3,CCN(C(=O)c1cc(F)ccc1Nc1cncnc1N1CCN(CC2CN(c3ccc(S(=O)(=O)N4CC(NC(=O)/C=C/CN(C)C)C4)cc3)C2)CC1)C(C)C,> 20000
30,14.2,CCN(C(=O)c1cc(F)ccc1Nc1cncnc1N1CCN(CC2CN(c3ccc(S(=O)(=O)C4CN(C(=O)/C=C/CN(C)C)C4)cc3)C2)CC1)C(C)C,1930
283,22.9,C=CC(=O)NC1CN(S(=O)(=O)c2ccc(N3CC(CN4CCN(c5ncncc5Nc5ccc(F)cc5C(=O)N(CC)C(C)C)CC4)C3)cc2)C1,> 20000
